Laboratory results as given in patent US10696615B2, “Prenylated hydroxystilbenes” (The University of Sydney, priority 2011, dated 2020).

How the values were obtained:
HL-60 (TB) = test: NCI in vitro cancer screen, Leukemia; format: cell-based, human; details: HL-60 (TB)
K-562 = test: NCI in vitro cancer screen, Leukemia; format: cell-based, human; details: K-562
MOLT-4 = test: NCI in vitro cancer screen, Leukemia; format: cell-based, human; details: MOLT-4
A549/ATCC = test: NCI in vitro cancer screen, Non-Small Cell Lung Cancer; format: cell-based, human
HOP-62 = test: as above; format: cell-based, human; details: HOP-62
HOP-92 = test: as above; format: cell-based, human; details: HOP-92
NCI-H226 = test: as above; format: cell-based, human; details: NCI-H226
NCI-H522 = test: as above; format: cell-based, human; details: NCI-H522
KM12 = test: NCI in vitro cancer screen, Colon Cancer; format: cell-based, human; details: KM12
SW-620 = test: NCI in vitro cancer screen, Colon Cancer; format: cell-based, human; details: SW-620
SF-268 = test: NCI in vitro cancer screen, CNS Cancer; format: cell-based, human; details: SF-268
SF-295 = test: NCI in vitro cancer screen, CNS Cancer; format: cell-based, human; details: SF-295
SF-539 = test: NCI in vitro cancer screen, CNS Cancer; format: cell-based; details: SF-539
SNB-75 = test: NCI in vitro cancer screen, CNS Cancer; format: cell-based, human; details: SNB-75
LOX IMVI = test: NCI in vitro cancer screen, Melanoma; format: cell-based, human
MDA-MB-435 = test: NCI in vitro cancer screen, Melanoma; format: cell-based, human; details: MDA-MB-435
SK-MEL-5 = test: NCI in vitro cancer screen, Melanoma; format: cell-based, human; details: SK-MEL-5
UACC-62 = test: NCI in vitro cancer screen, Melanoma; format: cell-based, human; details: UACC-62
IGROV1 = test: NCI in vitro cancer screen, Ovarian Cancer; format: cell-based, human; details: IGROV1
OVCAR-3 = test: NCI in vitro cancer screen, Ovarian Cancer; format: cell-based, human; details: OVCAR-3
OVCAR-5 = test: NCI in vitro cancer screen, Ovarian Cancer; format: cell-based, human; details: OVCAR-5
OVCAR-8 = test: NCI in vitro cancer screen, Ovarian Cancer; format: cell-based, human; details: OVCAR-8
SK-OV-3 = test: NCI in vitro cancer screen, Ovarian Cancer; format: cell-based, human; details: SK-OV-3
786-0 = test: NCI in vitro cancer screen, Renal Cancer; format: cell-based, human; details: 786-0
A498 = test: NCI in vitro cancer screen, Renal Cancer; format: cell-based, human; details: A498
RXF-393 = test: NCI in vitro cancer screen, Renal Cancer; format: cell-based, human; details: RXF-393
SN12C = test: NCI in vitro cancer screen, Renal Cancer; format: cell-based, human
TK-10 = test: NCI in vitro cancer screen, Renal Cancer; format: cell-based, human; details: TK-10
PC-3 = test: NCI in vitro cancer screen, Prostate Cancer; format: cell-based, human; details: PC-3
HS 578T = test: NCI in vitro cancer screen, Breast Cancer; format: cell-based, human
T-47D = test: NCI in vitro cancer screen, Breast Cancer; format: cell-based, human
[1] = Homo sapiens, read-out: LC50 (the source's name)

SMILES: COc1cc(/C=C/c2cc(O)cc(OCC=C(C)C)c2)ccc1O [USYDS2, (E)-3-(3-methyl-2-butenyloxy)-4′,5-dihydroxy-3′-methoxystilbene]
- TGI (HL-60 (TB)): 9.77 µM
- GI50 (HL-60 (TB); Homo sapiens): 1.34 µM
- CC50 (HL-60 (TB); [1]): > 100 µM
- GI50 (K-562; Homo sapiens, K562): 0.48 µM
- CC50 (K-562; Homo sapiens, K562, read-out: LC50 (the source's name)): > 100 µM
- TGI (K-562): >100 µM
- GI50 (MOLT-4; Homo sapiens): 4.16 µM
- CC50 (MOLT-4; [1]): > 100 µM
- TGI (MOLT-4): 28.3 µM
- TGI (A549/ATCC): 13.0 µM
- GI50 (A549/ATCC; Homo sapiens): 3.28 µM
- CC50 (A549/ATCC; [1]): 42.1 µM
- TGI (HOP-62): 18.5 µM
- GI50 (HOP-62; Homo sapiens): 4.44 µM
- CC50 (HOP-62; [1]): 43.4 µM
- TGI (HOP-92): 21.1 µM
- GI50 (HOP-92; Homo sapiens): 3.98 µM
- CC50 (HOP-92; [1]): 60.1 µM
- GI50 (NCI-H226; Homo sapiens): 5.43 µM
- LC50 (50% lethal concentration) (NCI-H226; Homo sapiens): 46.4 µM
- TGI (NCI-H226): 19.1 µM
- GI50 (NCI-H522; Homo sapiens): 1.14 µM
- CC50 (NCI-H522; [1]): 14.7 µM
- TGI (NCI-H522): 3.57 µM
- GI50 (KM12; Homo sapiens): 2.09 µM
- CC50 (KM12; [1]): 45 µM
- TGI (KM12): 11.7 µM
- GI50 (SW-620; Homo sapiens): 0.53 µM
- CC50 (SW-620; [1]): 40.7 µM
- TGI (SW-620): 14.0 µM
- GI50 (SF-268; Homo sapiens): 4.5 µM
- CC50 (SF-268; [1]): 51.6 µM
- TGI (SF-268): 19.2 µM
- GI50 (SF-295; Homo sapiens): 3.94 µM
- CC50 (SF-295; [1]): 49.2 µM
- TGI (SF-295): 14.7 µM
- GI50 (SF-539; Homo sapiens): 1.92 µM
- CC50 (SF-539; [1]): 50.2 µM
- TGI (SF-539): 13.8 µM
- GI50 (SNB-75; Homo sapiens): 2.14 µM
- CC50 (SNB-75; [1]): 55.8 µM
- TGI (SNB-75): 10.3 µM
- TGI (LOX IMVI): 19.4 µM
- GI50 (LOX IMVI; Homo sapiens): 1.56 µM
- CC50 (LOX IMVI; [1]): > 100 µM
- GI50 (MDA-MB-435; Homo sapiens): 0.34 µM
- CC50 (MDA-MB-435; [1]): 41.3 µM
- TGI (MDA-MB-435): 11.0 µM
- GI50 (SK-MEL-5; Homo sapiens): 1.58 µM
- CC50 (SK-MEL-5; [1]): 34.3 µM
- TGI (SK-MEL-5): 11.5 µM
- GI50 (UACC-62; Homo sapiens): 3.73 µM
- CC50 (UACC-62; [1]): 44.6 µM
- TGI (UACC-62): 15.9 µM
- GI50 (IGROV1; Homo sapiens, IGROV-1): 5.84 µM
- CC50 (IGROV1; Homo sapiens, IGROV-1, read-out: LC50 (the source's name)): > 100 µM
- TGI (IGROV1): 46.7 µM
- GI50 (OVCAR-3; Homo sapiens): 3.02 µM
- CC50 (OVCAR-3; [1]): 36.1 µM
- TGI (OVCAR-3): 10.7 µM
- GI50 (OVCAR-5; Homo sapiens): 10.1 µM
- CC50 (OVCAR-5; [1]): 60.9 µM
- TGI (OVCAR-5): 24.8 µM
- GI50 (OVCAR-8; Homo sapiens): 2.8 µM
- CC50 (OVCAR-8; [1]): 44.6 µM
- TGI (OVCAR-8): 14.8 µM
- GI50 (SK-OV-3; Homo sapiens): 3.69 µM
- CC50 (SK-OV-3; [1]): 38.9 µM
- TGI (SK-OV-3): 14.9 µM
- TGI (786-0): 15.9 µM
- GI50 (786-0; Homo sapiens): 3.55 µM
- LC50 (50% net cell kill) (786-0; Homo sapiens): 98.8 µM
- TGI (A498): 23.8 µM
- GI50 (A498; Homo sapiens): 10.3 µM
- CC50 (A498; [1]): 55.2 µM
- GI50 (RXF-393; Homo sapiens): 1.35 µM
- CC50 (RXF-393; [1]): 23.6 µM
- TGI (RXF-393): 5.46 µM
- TGI (SN12C): 18.8 µM
- GI50 (SN12C; Homo sapiens): 4.02 µM
- CC50 (SN12C; [1]): 60.2 µM
- GI50 (TK-10; Homo sapiens): 4.69 µM
- LC50 (TK-10; Homo sapiens): 40.1 µM
- TGI (TK-10): 14.3 µM
- GI50 (PC-3; Homo sapiens): 3.84 µM
- CC50 (PC-3; [1]): 65.8 µM
- TGI (PC-3): 18.7 µM
- TGI (HS 578T): 10.3 µM
- GI50 (HS 578T; Homo sapiens): 1.28 µM
- CC50 (HS 578T; [1]): > 100 µM
- TGI (T-47D): 33.6 µM
- GI50 (T-47D; Homo sapiens, T47D): 5.66 µM
- CC50 (T-47D; Homo sapiens, T47D, read-out: LC50 (the source's name)): > 100 µM
